Patent US5358712A, “Radiopharmaceutical agents for the detection of Alzheimer's disease” (Regents of the University of Minnesota, priority 1993, dated 1994)

Key:
vesamicol receptor [1] = assay: Blocking experiments: inhibition of radiotracer accumulation in the rat by coadministered compound; format: in vivo, rat (male Wistar); settings: rat
In short: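 Male Wistar rats (n=3/group) got iv radiotracer, alone or coadministered with blocker (e.g. (+)/(−)-HBrPP·HCl 1.3 μmol/kg, vesamicol·HCl 1.1 μmol/kg, or 0.31–0.53 mg/kg in other series). Blood and tissues taken 60 min post-injection to assess radiotracer accumulation.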

[2] = Tissue distribution (biodistribution) of radioiodinated compound in the rat; settings: rat
[3] = rat
vesamicol receptor [4] = settings: cited from earlier work
[5] = system: rodents and other laboratory animals; settings: cited from earlier work
[6] = system: vesicular acetylcholine storage; settings: cited from earlier work
vesamicol receptor [7] = assay: Ligand displacement studies in vivo; parameters: species or system rat (male Wistar); settings: rat, vesamicol iv 30 minutes after radiotracer
Description: To determine if vesamicol could displace bound [^125 I]5 in vivo, a blocking dose of vesamicol was injected intravenously 30 minutes following the administration of (-)-[^125 I]5.
Two groups of male Wistar rats (n=3) were used in this study. Each animal initially received, while under anesthesia, an iv dose of (-)-5, (9.5 μCi) in 0.1 ml of 50% aqueous ethanol. After 30 min. the control group received an iv dose of 50% aqueous ethanol (0.1 ml) while the second group received an iv dose of (dl)-vesamicol hydrochloride (1.1 μmol/kg) in 0.1 ml of 50% aqueous ethanol. All animals were sacrificed, as described above, at one hour following radiotracer injection. Data was analyzed as described above.

[8] = iv, 60 min, + (dl)-vesamicol HCl 0.3 (Table 3) or 0.31 mg/kg, 60 min
[9] = iv, 60 min, radiotracer only (control)

OC(CN1CCC(c2ccccc2)CC1)c1ccc([125I])cc1 (single isomer, unassigned; (+)) [(+)-[^125 l]13] [1-(4-Iodophenyl)-2-(4-phenylpiperidinyl)ethanol]
Brain: Blood Ratio (vesamicol receptor [1]; [8]): 7.02
Heart: Blood Ratio (vesamicol receptor [1]; [8]): 2.48
radioactivity in blood (vesamicol receptor [1]; [8]): 0.03 % dose/g of tissue
Brain: Blood Ratio (vesamicol receptor [1]; [9]): 17.86
Heart: Blood Ratio (vesamicol receptor [1]; [9]): 4.41
decrease of concentration in the brain ([2]; 3 hours post-injection vs initial, listed as (+)[^123 I]13): 35%
initial accumulation in the rat brain ([2]; initial, listed as (+)-[^125 I]13): 2.75 % of the injected dose
Brain: Blood Ratio ([2]; iv, 5 min): 14.8
Heart: Blood Ratio ([2]; iv, 5 min): 13.8
Brain: Blood Ratio ([2]; iv, 60 min): 41.7
Heart: Blood Ratio ([2]; iv, 60 min): 8.2
radioactivity in lung ([2]; iv, 60 min): 1.77 % dose/g
Brain: Blood Ratio ([2]; iv, 180 min): 37.4
Heart: Blood Ratio ([2]; iv, 180 min): 5.7
radioactivity in blood ([2]; iv, 180 min): 0.02 % dose/g
radioactivity in brain ([2]; iv, 180 min): 0.93 % dose/g
radioactivity in heart ([2]; iv, 180 min): 0.14 % dose/g
radioactivity in kidney ([2]; iv, 180 min): 1.53 % dose/g
radioactivity in liver ([2]; iv, 180 min): 1.97 % dose/g
radioactivity in lung ([2]; iv, 180 min): 0.62 % dose/g
radioactivity in muscle ([2]; iv, 180 min): 0.13 % dose/g
radioactivity in spleen ([2]; iv, 180 min): 0.77 % dose/g
efflux from the brain [3]: much slower

O[C@@H]1CCCC[C@H]1N1CCC(c2ccccc2)CC1 (relative stereo) [vesamicol, trans-2-(4-phenylpiperidino)cyclohexanol]
dissociation from the receptor (vesamicol receptor [4]): dissociate too quickly
reversibility of binding to the vesamicol receptor (vesamicol receptor [4]): binds reversibly
respiratory paralysis and death [5]: induces respiratory paralysis and death
blocking of the accumulation of [^125 I]5 in vivo, relative potency (vesamicol receptor [1]; vesamicol 1.1 μmol/kg, (+)-7 and (-)-7 1.3 μmol/kg, coadministered): equipotent
inhibition of ACh uptake into cholinergic synaptic vesicles and of quantal release [6]: inhibit both the uptake of ACh into cholinergic synaptic vesicles and quantal release
displacement of bound (-)-[^125 I]5 radioactivity from brain or heart (vesamicol receptor [7]): fails to displace
displacement of bound (-)-[^125 I]5 radioactivity from brain or heart (vesamicol receptor [7]; listed as (dl)-vesamicol): can not readily displace
